Measured values published in patent US11304918B2, “Methods and compositions for the treatment of diverticulosis” (Emmaus Medical, Inc., priority 2011, dated 2022).

Test system: diverticula
Experiment: Number of diverticula observed by colonoscopy in a person with diverticulosis ingesting L-glutamine
Type: in vivo
Details: one person, 30 g of L-glutamine per day as an aqueous solution, ingested, after twelve months
Text: Compositions according to the present invention may be used to treat diverticulosis as determined by a number of different methods to image colon pouches. Nonlimiting examples of imaging methods include: colonoscopy; computed tomography; and, x-ray based on a barium enema. […] The person ingested 30 g of L-glutamine per day as an aqueous solution. After twelve months of L-glutamine administration, the number of diverticula had been reduced by ninety (90) percent.

SMILES: NC(=O)CC[C@H](N)C(=O)O [L-glutamine]
- reduction of the number of diverticula: 90%
